Here are results for twelve molecules from ChEMBL document CHEMBL3046650, “Hydrogenated and Dichiorinated N-Phthaloyl-L-threonines and Their Dehydrated Phthalimides with Root Growth-promoting Activity for Rice Seedings” (J Pestic Sci, 2000).

The test system of data set [1] is Oryza sativa. Put plainly: Phytotoxicity against Oryza sativa cv. Koshihikari (rice) seedling assessed as shoot growth inhibition. In kind it is organism-based. As to conditions: in vivo.
Data set [2] deals with Oryza sativa. Put plainly: Growth promoting activity in Oryza sativa cv. Koshihikari (rice) seedling shoot at 1 x 10' -5 M. It counts as functional, organism-based.
Data set [3] relates to Oryza sativa. Put plainly: Phytotoxicity against Oryza sativa cv. Koshihikari (rice) seedling assessed as root necrosis at 1 x 10' -3 M. It counts as organism-based. Conditions: in vivo, 1000 µM.
Data set [4] has as its system Lactuca sativa. As to the kind of experiment: Growth promoting activity in Lactuca sativa cv. Gokuwase-CISCO (lettuce) seedling hypocotyl at 1 x 10' -6 to 1 x 10' -3 M. In kind it is functional, organism-based.
In data set [5] the test system is Lactuca sativa. As to the kind of experiment: Phytotoxicity against Lactuca sativa cv. Gokuwase-CISCO (lettuce) seedling assessed as root necrosis at 1 x 10' -3 M. It counts as organism-based. As to conditions: in vivo, 1000 µM.
For data set [6], the system named is Lactuca sativa. As to the kind of experiment: Phytotoxicity against Lactuca sativa cv. Gokuwase-CISCO (lettuce) seedling assessed as hypocotyl necrosis at 1 x 10' -3 M. It counts as organism-based. As to conditions: in vivo, 1000 µM.
Data set [7] concerns Oryza sativa. Put plainly: Growth promoting activity in Oryza sativa cv. Koshihikari (rice) seedling root at 1 x 10' -5 M relative to control. It counts as functional, organism-based.
Data set [8] deals with Oryza sativa. Put plainly: Growth promoting activity in Oryza sativa cv. Koshihikari (rice) seedling root at 1 x 10' -4 M relative to control. In kind it is functional.
For data set [9], the system named is Vigna mungo. Put plainly: Phytotoxicity against Vigna mungo (black gram) seedling assessed as hypocotyl growth inhibition at 1 x 10' -6 to 1 x 10' -3 M. In kind it is organism-based. Conditions: in vivo.
In data set [10] the test system is Vigna mungo. Put plainly: Phytotoxicity against Vigna mungo (black gram) seedling assessed as root growth inhibition at 1 x 10' -6 to 1 x 10' -3 M. It counts as organism-based. As to conditions: in vivo.
Data set [11] has as its system Vigna mungo. As to the kind of experiment: Growth promoting activity in Vigna mungo (black gram) seedling hypocotyl at 1 x 10' -6 to 1 x 10' -3 M. In kind it is functional, organism-based.
Data set [12] relates to Vigna mungo. As to the kind of experiment: Growth promoting activity in Vigna mungo (black gram) seedling root at 1 x 10' -6 to 1 x 10' -3 M. In kind it is functional, organism-based.
Data set [13] deals with Brassica rapa subsp. pekinensis. Put plainly: Phytotoxicity against Brassica rapa subsp. pekinensis (Chinese cabbage) cv. Kinshu seedling assessed as root growth inhibition at 1 x 10' -6 to 1 x 10' -3 M. In kind it is organism-based. Conditions: in vivo.
Data set [14] shares this test system. Put plainly: Growth promoting activity in Brassica rapa subsp. pekinensis (Chinese cabbage) cv. Kinshu seedling root at 1 x 10' -6 to 1 x 10' -3 M. It counts as functional, organism-based.
Data set [15] relates to Lactuca sativa. As to the kind of experiment: Growth promoting activity in Lactuca sativa cv. Gokuwase-CISCO (lettuce) seedling root at 1 x 10' -6 to 1 x 10' -3 M. In kind it is functional, organism-based.
Data set [16] deals with Lactuca sativa. As to the kind of experiment: Phytotoxicity against Lactuca sativa cv. Gokuwase-CISCO (lettuce) seedling assessed as hypocotyl growth inhibition at 1 x 10' -3 M. In kind it is organism-based. Conditions: in vivo, 1000 µM.
Data set [17] has as its system Brassica rapa subsp. pekinensis. Put plainly: Growth promoting activity in Brassica rapa subsp. pekinensis (Chinese cabbage) cv. Kinshu seedling root at 1 x 10' -3 M. It counts as functional, organism-based.
Data set [18] has the same test system. Put plainly: Phytotoxicity against Brassica rapa subsp. pekinensis (Chinese cabbage) cv. Kinshu seedling assessed as root growth inhibition at 1 x 10' -4 M. It counts as organism-based. Conditions: in vivo, 100 µM.
Data set [19] deals with Oryza sativa. As to the kind of experiment: Phytotoxicity against Oryza sativa cv. Koshihikari (rice) seedling assessed as root growth inhibition at 1 x 10' -3 M. It counts as organism-based. Conditions: in vivo, 1000 µM.

Each structure is given as a SMILES string. Calls of active or inactive are those of the source. The rule behind the calls is not given here.

As to `C/C=C(/C(=O)O)N1C(=O)[C@H]2CCCC[C@H]2C1=O`, the Activity result is “Non-toxic” in data set [1]; “Non-toxic” in data set [3]; “Toxic” in data set [5]; “Toxic” in data set [6]; “Non-toxic” in data set [9]; “Non-toxic” in [10]. Further, the Activity entry in data set [13] was “Non-toxic”. Also, the result in data set [2] was Active. For the same molecule, the result in [4], in data set [7], in data set [11], in data set [12], in [14] and in data set [15] was inactive. In addition, the “fold change (FC)” value in [8] is on record as 2.1.

For the molecule `C/C=C(/C(=O)O)N1C(=O)[C@H]2CC=CC[C@H]2C1=O`, the Activity entry was “Non-toxic” in [3]; “Toxic” in data set [5]; “Toxic” in [16]; “Non-toxic” in [9]; “Non-toxic” in data set [10]. The result in [4], in [7], in data set [11], in [12] and in [15] was inactive. Moreover, the “fold change (FC)” value in data set [8] is 2.1. Also, the outcome in data set [17] was Active.

Take `C/C=C(/C(=O)O)N1C(=O)C2=C(CCCC2)C1=O`: the result in data set [2] and in [17] was Active. Also, the Activity result in data set [3] was “Toxic”; in [5], “Toxic”; in data set [16], “Toxic”; in [9], “Non-toxic”; in data set [10], “Non-toxic”; in data set [18], “Toxic”. Moreover, the outcome in [4], in data set [7], in data set [11], in data set [12] and in [15] was inactive. The “fold change (FC)” value in data set [8] came to 2.1.

Consider `C/C=C(/C(=O)O)N1C(=O)c2ccccc2C1=O`, for which the result in data set [4], in data set [11], in data set [12] and in [15] was inactive. Moreover, the Activity result in data set [5] is “Toxic”; in data set [16], “Toxic”; in data set [9] it was “Non-toxic”; in data set [10], “Non-toxic”; in data set [19] it was “Toxic”. Besides, the outcome in data set [7] and in [17] was Active. For the same molecule, in data set [8], the “fold change (FC)” value came to 2.1.

Regarding `C/C=C(/C(=O)O)N1C(=O)[C@H]2CCCC[C@@H]2C1=O` (relative stereo), the Activity entry in [1] was “Non-toxic”; in [3], “Non-toxic”; in [5], “Toxic”; in [16], “Toxic”; in data set [9], “Non-toxic”; in data set [10], “Non-toxic”. Also, the Activity entry in data set [13] is listed as “Non-toxic”. In addition, the result in [4], in data set [7], in data set [11], in data set [12], in data set [14] and in data set [15] was inactive. Besides, in [8], the “fold change (FC)” value was determined as 2.1.

`C/C=C(/C(=O)O)N1C(=O)c2cc(Cl)c(Cl)cc2C1=O` [4,5-Cl2P-BTEA]: the Activity entry in data set [3] is “Non-toxic”; in [5], “Toxic”; in data set [6], “Toxic”; in data set [9] it was “Non-toxic”; in data set [10] it was “Non-toxic”; in [13] it was “Non-toxic”. Besides, the result in [4], in data set [11], in data set [12], in data set [14] and in data set [15] was inactive. In data set [7], the result was Active. Also, the “fold change (FC)” value in data set [8] came out at 2.1.

As to `C[C@@H](O)[C@@H](C(=O)O)N1C(=O)[C@H]2CCCC[C@H]2C1=O` [CIS-1,2,3,4,5,6-HEXAHYDROPHTHALOYL-L-THREONINE], the Activity entry is reported as “Non-toxic” in data set [1]; “Non-toxic” in data set [3]; “Toxic” in data set [5]; “Toxic” in data set [6]; “Non-toxic” in data set [9]; “Non-toxic” in data set [10]. Moreover, in data set [13], the Activity result is recorded as “Non-toxic”. In addition, in data set [2], the result was Active. Besides, the result in [4], in data set [7], in data set [11], in [12], in data set [14] and in data set [15] was inactive. The “fold change (FC)” value in data set [8] is 1.6.

Take `C[C@@H](O)[C@@H](C(=O)O)N1C(=O)[C@H]2CC=CC[C@H]2C1=O` [CIS-1,2,3,6-TETRAHYDROPHTHALOYL-L-THREONINE]: the Activity result in data set [3] is reported as “Non-toxic”; in data set [5], “Toxic”; in data set [6], “Toxic”; in data set [9] it was “Non-toxic”; in data set [10] it was “Non-toxic”; in data set [13], “Non-toxic”. Moreover, the outcome in data set [4], in data set [7], in data set [11], in [12], in [14] and in data set [15] was inactive. Also, the “fold change (FC)” value in data set [8] was 1.6.

Turning to `C[C@@H](O)[C@@H](C(=O)O)N1C(=O)c2ccccc2C1=O` [N PHTHALOYL-L-THREONINE], the result in data set [4], in data set [11], in data set [12], in data set [14] and in data set [15] was inactive. The Activity result in data set [5] is recorded as “Toxic”; in [16] it was “Toxic”; in data set [9], “Non-toxic”; in data set [10], “Non-toxic”; in [13], “Non-toxic”; in [19], “Toxic”. The outcome in data set [7] was Active. In addition, the “fold change (FC)” value in data set [8] was 1.6.

For `C[C@@H](O)[C@@H](C(=O)O)N1C(=O)C2=C(CCCC2)C1=O` [N-(3,4,5,6-TETRAHYDROPHTHALOYL)-L-THREONINE], the outcome in data set [2] was Active. The Activity entry in data set [3] is recorded as “Toxic”; in data set [5], “Toxic”; in data set [16], “Toxic”; in data set [9], “Non-toxic”; in data set [10] it was “Non-toxic”; in data set [13] it was “Non-toxic”. In addition, the result in [4], in [7], in [11], in [12], in data set [14] and in [15] was inactive. In addition, in [8], the “fold change (FC)” value worked out at 1.6.

Take `C[C@@H](O)[C@@H](C(=O)O)N1C(=O)c2cc(Cl)c(Cl)cc2C1=O` [N-(4,5-DICHLOROPHTHALOYL)-L-THREONINE]: the Activity entry is given as “Non-toxic” in [3]; “Toxic” in data set [5]; “Toxic” in data set [6]; “Non-toxic” in [9]; “Non-toxic” in data set [10]; “Non-toxic” in data set [13]. Also, the result in [4], in [11], in data set [12], in data set [14] and in [15] was inactive. In addition, in data set [7], the outcome was Active. In addition, the “fold change (FC)” value in data set [8] was 1.6.

Consider `C[C@@H](O)[C@@H](C(=O)O)N1C(=O)[C@H]2CCCC[C@@H]2C1=O` [TRANS-1,2,3,4,5,6-HEXAHYDROPHTHALOYL-L-THREONINE], for which the Activity result in data set [1] is listed as “Non-toxic”; in data set [3], “Non-toxic”; in data set [5], “Toxic”; in data set [16] it was “Toxic”; in data set [9], “Non-toxic”; in data set [10], “Non-toxic”. The Activity entry in data set [13] is “Non-toxic”. Also, the result in [4], in [7], in data set [11], in data set [12], in data set [14] and in data set [15] was inactive. For the same molecule, the “fold change (FC)” value in data set [8] came to 1.6.
